Measurements as given in paper PMC6768028, “Synthesis, SAR and in vitro therapeutic potentials of thiazolidine-2,4-diones” (Chemistry Central Journal, 2018).
Converted amounts (≈) assume the structure as drawn. Like-named read-outs stand apart in the source and are kept apart here.

Assays:
[1] = test system: α-amylase enzyme (diastase); assay: Antidiabetic activity: α-amylase inhibitory activity using diastase, colorimetric method; assay type: biochemical; conditions: for IC50 (antidiabetic activity, α-amylase): calculated via graph of % inhibition
Description: All the synthesized compounds were evaluated against α-amylase inhibitory activity by using diastase based on colorimetric method. 0.25 g of soluble potato starch was dissolved in 50 ml of 20 mM phosphate buffer by heating for 15 min. 1 mg diastase (amylase enzyme) was mixed in 100 ml of 20 mM phosphate buffer (pH 6.9) to obtain the enzyme solution. Different concentrations of all the synthesized derivatives were prepared by dissolving them in DMSO. […] 1 ml of enzyme solution was mixed with 1 ml of each synthesized derivatives and incubated for 10 min at 25 °C. Then 1 ml of this mixture was mixed with 1 ml of soluble potato starch solution in a tube and incubated for 10 min at 25 °C. Then tubes were closed after adding 1 ml of color reagent and placed into water bath for 15 min at 85 °C. The reaction mixture was removed from water bath after 15 min. After cooling, the reaction mixture was diluted with 9 ml of distilled water and the absorbance was taken at 540 nm in UV spectrophotometer. Blank solution was prepared by replacing the enzyme solution with buffer solution and absorbance was taken. Measurement of control was performed in identical manner by replacing the synthesized derivatives in 1 ml of DMSO.
Percentage inhibition of α-amylase enzyme was calculated by using following formula:1 %Inhibition=ABlank-ASample/ABlank×100

[2] = test system: Candida albicans; assay: Antifungal activity, tube dilution method (MIC); assay type: cell-based; conditions: 48 h, read-out: Minimum inhibitory concentration, C. albicans, tube dilution, 37 ± 1 °C, 48 h
Description: (§1) The in vitro antimicrobial activity of synthesized compounds was done by tube dilution method against Gram-positive bacteria: Staphylococcus aureus, Bacillus subtilis, Gram-negative bacteria: Escherichia coli, Klebsiella pneumonia, Salmonella typhi and fungal: Candida albicans and Aspergillus niger strains using cefadroxil and fluconazole as standard. Dilutions of test and standard compounds were prepared in double strength nutrient broth for bacterial strains and Sabouraud dextrose broth for fungal strains.

[3] = test system: Aspergillus niger; assay: Antifungal activity, tube dilution method (MIC); assay type: cell-based; conditions: 168 h, read-out: Minimum inhibitory concentration, A. niger, tube dilution, 25 ± 1 °C, 7 days
Description: as §1

[4] = Antioxidant activity: free radical scavenging method by DPPH assay; conditions: for % inhibition (DPPH), 25 μg/ml / % inhibition (DPPH), 50 μg/ml / % inhibition (DPPH), 75 μg/ml / % inhibition (DPPH), 100 μg/ml: 30 min, 517 nm; for IC50 (antioxidant activity, DPPH): calculated via graph of % inhibition
Description: The antioxidant activity of the newly synthesized compounds were evaluated spectrophotometrically using free radical scavenging method by DPPH (2,2-diphenyl-1-picrylhydrazyl) assay. The DPPH is a stable free radical with maximal absorption at 517 nm and is reduced to a corresponding hydrazine when it reacting with hydrogen donors. […] DPPH solution (3 μg/ml) was prepared in methanol and DPPH (in 1:1) solution was used for blank reference. Four dilutions of different concentrations (25, 50, 75 and 100 μg/ml) of each synthesized compound and standard (ascorbic acid) were prepared in the methanol and 1 ml of each concentration was added to 1 ml of DPPH solution. The solution mixture was shaken vigorously and kept in dark place for 30 min at room temperature and absorbance was measured by UV at 517 nm. Percentage inhibition of Free radical DPPH was calculated as follows:1 %Inhibition=ABlank-ASample/ABlank×100 where, ABlank: absorbance of the blank reaction, ASample: absorbance of the test compound.

[5] = test system: Klebsiella pneumonia; assay: Antimicrobial activity, tube dilution method (MIC); assay type: cell-based; conditions: Klebsiella pneumoniae, 24 h
Description: as §1

[6] = test system: Staphylococcus aureus; assay: Antimicrobial activity, tube dilution method (MIC); assay type: cell-based; conditions: 24 h, read-out: Minimum inhibitory concentration, S. aureus, tube dilution, 37 ± 1 °C, 24 h
Description: as §1

[7] = test system: Escherichia coli; assay: Antimicrobial activity, tube dilution method (MIC); assay type: cell-based; conditions: 24 h
Description: as §1

[8] = test system: Bacillus subtilis; assay: Antimicrobial activity, tube dilution method (MIC); assay type: cell-based; conditions: 24 h, read-out: Minimum inhibitory concentration, B. subtilis, tube dilution, 37 ± 1 °C, 24 h
Description: as §1

[9] = test system: Salmonella typhi; assay: Antimicrobial activity, tube dilution method (MIC); assay type: cell-based; conditions: 24 h; for MIC: Salmonella enterica, TYPHI, read-out: Minimum inhibitory concentration, S. typhi
Description: as §1

[10] = read-out: Minimum inhibitory concentration, K. pneumonia, tube dilution, 37 ± 1 °C, 24 h
[11] = read-out: Minimum inhibitory concentration, E. coli, tube dilution, 37 ± 1 °C, 24 h

SMILES	% inhibition (α-amylase), 25 μg/ml [1] [%]	% inhibition (α-amylase), 50 μg/ml [1] [%]	% inhibition (α-amylase), 75 μg/ml [1] [%]	% inhibition (α-amylase), 100 μg/ml [1] [%]	IC50 (antidiabetic activity, α-amylase) [1] [µg/mL]	MIC [2] [mM]	MIC [3] [mM]	% inhibition (DPPH), 25 μg/ml [4] [%]	% inhibition (DPPH), 50 μg/ml [4] [%]	% inhibition (DPPH), 75 μg/ml [4] [%]	% inhibition (DPPH), 100 μg/ml [4] [%]	IC50 (antioxidant activity, DPPH) [4] [µg/mL]	melting point [°C]	MIC [5, 10] [mM]	MIC [6] [mM]	MIC [7, 11] [mM]	MIC [8] [mM]	MIC [9] [mM]	further results
O=C1NC(=O)C(=Cc2cccc([N+](=O)[O-])c2)S1 [Compound 7, 5-(3-Nitrobenzylidene)thiazolidine-2,4-dione]	24.72	35.71	64.87	97.15	56.09 (≈ 224 µM)	4.99 (≈ 1250 µg/mL)	9.9 (≈ 2480 µg/mL)	20.51	35.61	79.74	86.04	55.23 (≈ 221 µM)	110 to 113	4.99 (≈ 1250 µg/mL)	4.99 (≈ 1250 µg/mL)	4.99 (≈ 1250 µg/mL)	9.9 (≈ 2480 µg/mL)	4.99 (≈ 1250 µg/mL)	
O=C1NC(=O)C(=Cc2ccc(Br)cc2)S1 [Compound 9, 5-(4-Bromobenzylidene)thiazolidine-2,4-dione]	24.73	53.78	68.34	89.37	41.67 (≈ 147 µM)	4.3 (≈ 1220 µg/mL)	4.3 (≈ 1220 µg/mL)	36.83	45.41	71.51	87.34	27.66 (≈ 97.3 µM)	150 to 152	8.79 (≈ 2500 µg/mL)	4.3 (≈ 1220 µg/mL)	8.79 (≈ 2500 µg/mL)	8.79 (≈ 2500 µg/mL)	4.3 (≈ 1220 µg/mL)	
O=Cc1ccc(C=C2SC(=O)NC2=O)cc1 [Compound 21, 4-((2,4-Dioxothiazolidin-5-ylidene)methyl)benzaldehyde]	21.98	47.28	70.56	74.76	38.65 (≈ 166 µM)	5.3 (≈ 1240 µg/mL)	5.3 (≈ 1240 µg/mL)	17.91	41.64	75.98	92.32	55.51 (≈ 238 µM)	147 to 150	10.7 (≈ 2500 µg/mL)	5.3 (≈ 1240 µg/mL)	5.3 (≈ 1240 µg/mL)	5.3 (≈ 1240 µg/mL)	5.3 (≈ 1240 µg/mL)	
COc1cc(C=C2SC(=O)NC2=O)cc(OC)c1OC [Compound 10, 5-(3,4,5-Trimethoxybenzylidene)thiazolidine-2,4-dione]	29.34	43.98	63.36	98.14	47.49 (≈ 161 µM)			28.61	39.67	59.75	86.70	43.44 (≈ 147 µM)	210 to 213	4.2 (≈ 1240 µg/mL)		8.4 (≈ 2480 µg/mL)		4.2 (≈ 1240 µg/mL)	Minimum inhibitory concentration, S. typhi ([9]; tube dilution, 37 ± 1 °C): 4.20 μΜ/ml
CCOc1cc(C=C2SC(=O)NC2=O)ccc1O [Compound 11, 5-(4-Hydroxy-3-ethoxybenzylidene)thiazolidine-2,4-dione]	18.49	47.87	59.74	89.71	52.69 (≈ 199 µM)	4.7 (≈ 1250 µg/mL)	4.7 (≈ 1250 µg/mL)	18.64	25.71	72.78	93.59	64.03 (≈ 241 µM)		4.7 (≈ 1250 µg/mL)	4.7 (≈ 1250 µg/mL)	4.7 (≈ 1250 µg/mL)	9.4 (≈ 2490 µg/mL)	4.7 (≈ 1250 µg/mL)	
COc1ccccc1C=C1SC(=O)NC1=O [Compound 15, 5-(2-Methoxybenzylidene)thiazolidine-2,4-dione]	32.59	51.78	66.98	81.30	22.35 (≈ 95 µM)	5.31 (≈ 1250 µg/mL)	5.31 (≈ 1250 µg/mL)	33.51	43.98	77.21	98.67	43.25 (≈ 184 µM)	147 to 150		5.31 (≈ 1250 µg/mL)	5.31 (≈ 1250 µg/mL)	5.31 (≈ 1250 µg/mL)	5.31 (≈ 1250 µg/mL)	
O=C1NC(=O)C(=Cc2ccccc2Cl)S1 [Compound 13, 5-(2-Chlorobenzylidene)thiazolidine-2,4-dione]	25.74	43.89	56.76	92.72	48.45 (≈ 202 µM)	5.21 (≈ 1250 µg/mL)	2.6 (≈ 623 µg/mL)	24.45	44.76	71.51	77.84	39.41 (≈ 164 µM)		10.4 (≈ 2490 µg/mL)	5.21 (≈ 1250 µg/mL)	5.21 (≈ 1250 µg/mL)	10.4 (≈ 2490 µg/mL)	5.21 (≈ 1250 µg/mL)	
COc1cccc(C=C2SC(=O)NC2=O)c1 [Compound 16, 5-(3-Methoxybenzylidene)thiazolidine-2,4-dione]	27.52	43.73	57.27	85.23	40.92 (≈ 174 µM)	5.31 (≈ 1250 µg/mL)	5.31 (≈ 1250 µg/mL)	30.65	43.62	79.11	87.97	39.77 (≈ 169 µM)	217 to 220	10.6 (≈ 2490 µg/mL)	5.31 (≈ 1250 µg/mL)	5.31 (≈ 1250 µg/mL)	5.31 (≈ 1250 µg/mL)	5.31 (≈ 1250 µg/mL)	
O=C1NC(=O)/C(=C\c2cccc(Cl)c2)S1 [Compound 14, 5-(3-Chlorobenzylidene)thiazolidiine-2,4-dione]													137 to 140						
O=C1NC(=O)C(=Cc2ccc(O)cc2)S1 [Compound 5, 5-(4-Hydroxybenzylidene)thiazolidine-2,4-dione]	18.26	47.61	49.24	96.72	56.64 (≈ 256 µM)	5.65 (≈ 1250 µg/mL)	5.65 (≈ 1250 µg/mL)	35.79	39.78	62.02	85.47	31.10 (≈ 141 µM)			5.65 (≈ 1250 µg/mL)		5.65 (≈ 1250 µg/mL)	5.65 (≈ 1250 µg/mL)	MIC ([5]; tube dilution, 37 ± 1 °C, read-out: Minimum inhibitory concentration, K. pneumonia): 11.3 mM (≈ 2500 µg/mL); MIC ([7]; tube dilution, 37 ± 1 °C, read-out: Minimum inhibitory concentration, E. coli): 11.3 mM (≈ 2500 µg/mL)
